From article PMC4811675 (Cancer cell, 2016)
Where a SMILES comes first, the peptide text is derived from it. The star is where a group is joined. Cbz = O=C(OCc1ccccc1)*

Experiments:
[1] = tested on: c-Myc; experiment: c-Myc transcription, turnover and NEDD4 expression in MCF-7 cells; type: cell-based, human
[2] = target: T1, SIRT3 (Homo sapiens, UniProt Q9NTG7); experiment: HPLC-based sirtuin inhibition assay, SIRT3; type: biochemical; settings: at 200 µM
T1 sequence (Q9NTG7 1-399): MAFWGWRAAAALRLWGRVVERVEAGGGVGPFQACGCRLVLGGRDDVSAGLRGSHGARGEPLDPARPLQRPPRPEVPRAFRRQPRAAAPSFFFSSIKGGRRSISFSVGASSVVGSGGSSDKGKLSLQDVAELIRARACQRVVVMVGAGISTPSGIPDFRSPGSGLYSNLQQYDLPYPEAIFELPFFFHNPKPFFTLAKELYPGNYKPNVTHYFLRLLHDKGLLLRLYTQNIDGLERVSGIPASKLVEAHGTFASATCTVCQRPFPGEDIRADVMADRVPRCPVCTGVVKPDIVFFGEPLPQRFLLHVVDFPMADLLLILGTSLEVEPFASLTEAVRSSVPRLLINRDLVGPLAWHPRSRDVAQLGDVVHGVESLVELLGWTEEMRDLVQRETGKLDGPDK

[3] = tested on: MCF-7, MDA-MB-468 and MDA-MB-231; experiment: Cell viability assay; type: cell-based, human; settings: 72 hr, up to 50 µM
[4] = tested on: MDA-MB-231 cells; experiment: Cell viability assay; type: cell-based, human; settings: read-out: IC50 cell viability; 72 hr
[5] = tested on: MCF-10A and HME1; experiment: Cell viability assay; type: cell-based, human; settings: 72 hr, compared with malignant cells
[6] = tested on: MCF-7 cells; experiment: Soft agar colony formation assay; type: cell-based, human; settings: 25 µM in ethanol
[7] = tested on: NCI-60 panel of human cancer cell lines; experiment: NCI-60 cell line screening; type: cell-based; settings: single dose of 10 µM, 24 hr
[8] = tested on: BT-549; experiment: NCI-60 cell line screening, BT-549; type: cell-based, human; settings: 10 µM TM
[9] = tested on: MDA-MB-231 human breast cancer xenograft; experiment: MDA-MB-231 xenograft model in immunocompromised mice; type: in vivo
[10] = Detection of TM in mouse serum, fat and tumor tissues by mass spectrometry; type: in vivo, mice; settings: IP administration
[11] = tested on: MMTV-PyMT mammary tumors; experiment: MMTV-PyMT mammary tumor model; type: in vivo, mice
[12] = tested on: c-Myc; experiment: c-Myc protein level in MCF-7 cells; type: cell-based, human; settings: 25 µM
[13] = tested on: c-Myc; experiment: c-Myc protein level in BT-549 cells; type: cell-based, human; settings: 25 µM
[14] = tested on: MCF-7 cells; experiment: Cell cycle distribution and β-galactosidase senescence staining in MCF-7 cells; type: cell-based, human; settings: 25 µM
[15] = 30 days treatment, compared with vehicle
[16] = 30 days treatment, relative to vehicle

CC(C)C[C@@H](C=O)NC(=O)[C@H](CC(C)C)NC(=O)[C@H](CC(C)C)NC(=O)OCc1ccccc1 [MG132, reference compound] (Cbz-Leu-Leu-Leu-aldehyde)
effect on TM-induced down-regulation of c-Myc ([1]; MCF-7 cells, TM 25 µM 4 hr then MG132 10 µM 2 hr): prevented the TM-induced down-regulation of c-Myc

CCCCCCCCCCCCCC(=S)NCCCCC(NC(=O)OCc1ccccc1)C(=O)Nc1ccccc1 (centres unmarked) [TM]
inhibition of SIRT3 [2]: did not inhibit
inhibition of cell viability [3]: greater inhibition of cell viability
IC50 [4]: 34 µM
sensitivity of cell viability to TM [5]: much less sensitive
anchorage-independent growth (soft agar colony formation) [6]: significantly inhibited
cell lines inhibited by >50% [7]: 36/56
viability [8]: ~100%
body weight ([9]; 1.5 mg TM daily, 30 days): no significant weight loss
toxicity in mice ([9]; 1.5 mg TM daily, 30 days): did not cause significant toxicity
tumor growth ([9]; 1.5 mg TM in 50 µL DMSO daily, IT or IP, 30 days, versus vehicle): significantly inhibited tumor growth
acetyl-α-tubulin level in xenograft tumors [9, 15]: moderately but statistically significantly increased
Ki-67+ cells in tumors [9, 16]: significant decrease in Ki-67^+ cells
TM content in abdominal fat [10]: significant amount of TM accumulated in abdominal fat
TM content in tumors [10]: reached the tumors
acetyl-α-tubulin level in tumors [11, 15]: modest but statistically significant increase
proliferation of tumor cells by Ki-67 staining [11, 16]: significant decrease in proliferation of tumor cells
mean latency to tumor onset ([11]; daily IP 1.5 mg TM in 50 µL DMSO, control group 48 days): 54 days
tumor-free survival ([11]; daily IP 1.5 mg TM, compared with vehicle): significantly prolonged
c-Myc protein level [12]: decreased c-Myc protein level in a time-dependent manner
c-Myc protein abundance [13]: did not have a significant effect
cell cycle distribution ([14]; 0-72 hr, flow cytometry): pronounced increase in cells arrested in G0/G1 phase
cellular senescence by β-galactosidase staining ([14]; 5 days): significant cellular senescence
NEDD4 expression ([1]; MCF-7 and K562 cells, 25 µM TM): up-regulated by TM at the transcriptional level
half-life of c-Myc ([1]; MCF-7 cells, 25 µM 4 hr then CHX): shortened
c-Myc mRNA level ([1]; MCF-7 cells, 25 µM, RT-PCR): not affected
